From patent US12157745B2, “Heterocyclic systems and pharmaceutical compositions thereof” (University of Sharjah, priority 2018, dated 2024)

Key:
MCF-7 cells = experiment: Cell cycle analysis (propidium iodide, flow cytometry); assay type: cell-based; settings: after 16, 24, 48, and 72 hours of treatment
Method: Apoptosis studies: The molecular effect of compound it was evaluated by investigating its apoptotic (FIG. 5) and cell cycle arresting potentials (FIGS. 6A and 6B). Compound it arrests the cells at G0/G1 phase in MCF-7 cells (>15%) with respect to control cells after 16, 24, 48, and 72 hours of treatment.
Cell cycle arresting potentials of compound it were analyzed by an already established protocol with minor modifications. In brief, 3×10^6 cells of MCF-7, SKBR3, and HCT116 were seeded and incubated overnight in a T75 cm^2 flask before treating with IC50 dose of compound it for […]. The cells which were devoid of any treatments served as controls for each group. After respective treatment hours, the cells were washed two times with PBS and fixed with ice cold ethanol (70%) overnight. The cells were then washed two times with cold PBS and 1×10^6 cells were then counted and incubated with 1 ml RNAase (100 μg/mL) for 30 min at 37° C. The cell pellet was further added with 200 μl of propidium iodide (50 μg/mL) and immediately analyzed by a flow cytometer (BD, Accuri C6).

C-Myc oncogenic protein = experiment: Western blot, C-Myc expression; assay type: cell-based; settings: all the tested cell lines
Method: Over-expression of this oncogene could result in tumor cell proliferation and migration and therefore its inhibition may halt tumor growth. Other pro-apoptotic (Bid, Bax, caspase-3 & -9) and anti-apoptotic (Bcl-xL) proteins were also modulated by compound it as evident from western blot analysis and as confirmed by annexin V study (FIG. 7).
(§1) The MCF-7, SKBR3 and HCT116 total cell lysate were prepared after 24 hours of treatment with compound it at IC50 and DIC50 doses by using 1× laemmli buffer. Total protein concentration was then estimated for each sample and 15-30 μg of protein lysate were loaded equally on 12% SDS-PAGE gel in order to detect various proteins expression levels. In short, the membrane was incubated with different primary antibodies (as mentioned in above section) (1:1000) overnight after blocking with 5% non-fat milk solution for 1 hour. The membrane was then re-probed with respective mouse/rabbit secondary antibodies (1:2000) for 1 h, and later developed by enhanced chemiluminescence (ECL) method by using a Chemidoc MP (BioRad, Germany).

H2AX = experiment: DNA damage study, H2AX phosphorylation (western blot); assay type: cell-based; settings: SKBr3 cells; IC50 and Double IC50 treatments
Excerpt: DNA damage studies: One of the main properties of any efficient chemotherapeutic drug is to induce DNA damage in tumor cells either directly or indirectly by generating harmful DNA crosslinks, which can lead to apoptosis and impact the cell by disrupting gene function and/or impairing transcription, DNA replication, and cell proliferation. To gain additional knowledge of compound it's anticancer properties, its mechanism of action to induce DNA damage was studied in breast and colon cancer cells (FIG. 8). One of the critical post-translational modifications of chromatin is phosphorylation of multiple proteins involved in DNA damage pathway and one of the earliest events during DNA double strand break is the phosphorylation of Ser139 on the specialized histone called H2AX, which is then referred to as γ-H2AX.
as §1, with “The membrane was then re-probed with respective mouse/rabbit secondary antibodies (1:2000) for 1 h, and later developed by enhanced chemiluminescence (ECL) method by using a Chemidoc MP (BioRad, Germany).” left out

ATR = experiment: DNA damage study, ATR phosphorylation (western blot); assay type: cell-based; settings: also its downstream target p53
Method: (§2) However, recruitment of phosphatidylinositol-3-kinase (PI3K) family members to the site of DNA damage is the first step of DNA damage response mechanisms and the phosphorylation of ataxia telangiectasia-mutated (ATM) or ATM-Rad3-related (ATR) kinases often follows. […] Overall, compound it was able to induce DNA damage in an ATR-Chk2 dependent pathway in aggressive breast cancer phenotypes.
as §1

p-Chk2 = experiment: DNA damage study, p-Chk2 expression (western blot); assay type: cell-based
Method: as §2, §1

cytosol aminopeptidase = molecular target: T1, cytosol aminopeptidase (Homo sapiens, UniProt P28838); experiment: DARTS proteomic assay; assay type: binding
T1 construct: HEK293T cells were lysed using M-PER; endogenous in cells; host or cells: HEK293T lysate
T1 sequence (P28838 whole entry): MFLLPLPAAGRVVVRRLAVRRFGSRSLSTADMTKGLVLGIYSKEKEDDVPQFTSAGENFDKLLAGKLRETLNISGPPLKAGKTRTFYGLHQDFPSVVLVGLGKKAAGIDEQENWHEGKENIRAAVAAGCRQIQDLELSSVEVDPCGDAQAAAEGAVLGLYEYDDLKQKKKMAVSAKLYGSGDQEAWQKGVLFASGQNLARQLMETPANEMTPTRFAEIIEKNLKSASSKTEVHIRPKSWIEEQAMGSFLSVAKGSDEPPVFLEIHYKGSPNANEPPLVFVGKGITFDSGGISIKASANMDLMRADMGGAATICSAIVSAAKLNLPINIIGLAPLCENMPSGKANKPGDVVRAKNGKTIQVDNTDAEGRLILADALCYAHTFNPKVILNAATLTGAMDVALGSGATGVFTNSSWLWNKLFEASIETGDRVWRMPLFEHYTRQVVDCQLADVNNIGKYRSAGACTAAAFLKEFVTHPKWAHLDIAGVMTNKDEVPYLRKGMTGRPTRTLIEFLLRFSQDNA
Excerpt: (§3) The unique properties of compound it prompted an in-depth analysis to explore its potential novel targets. […] Mammalian thioredoxin reductases (TrxRs) are selenocysteine-containing homodimericflavin enzymes that catalyze the NADPH-dependent reduction of oxidized thioredoxins. […] Therefore, inhibiting this enzyme should form the foundation of a novel anticancer lead drug candidate. Many drug companies around the world are trying to design drugs that target this enzyme, however, until now there is no clinical anti-cancer drug that specifically targets TrxR although some drugs have been reported to inhibit TrxR to varying extents. […] One of the hurdles in developing a successful TrxR inhibitor is its cross reactions with thiols present inside the cells. […] Moreover, according to many reports, inhibiting excessive TrxR levels will also […] of Parkinson's disease as well as Alzheimer's disease. On the other hand, increased aminopeptidases are typically observed in many cancer tissues and play a key role in tumor cell proliferation, angiogenesis, and tumor invasiveness by regulating extracellular matrix degradation and cell signaling and recognition. […] A DARTS assay was used to assess the binding of compound 1t. HEK293T cells were lysed using M-PER (Thermo Scientific, Inc.) supplemented with protease and phosphatase inhibitors (Lysis buffer). 4.7 mg/mL of protein and TNC buffer (10 mM Tris, 140 mMNaCl, 5 mM CaCl2)) was added, compound it was diluted in DMSO to 3 different concentrations (0.01 μM, 0.1 μM, 1 μM) and incubated for one hour at room temperature. Trypsin (Promega) was added and incubated for 3 hours at 37° C. Thereafter, M-PER lysis buffer was added and the samples were concentrated with Microcon 10K centrifugal filters. The proteins were identified by gel electrophoresis liquid chromatography mass spectroscopy ([…]).

thioredoxin reductase = molecular target: T2, thioredoxin reductase (Homo sapiens, UniProt Q16881); experiment: DARTS proteomic assay; assay type: binding; settings: FIG. 9
T2 construct: HEK293T cells were lysed using M-PER; endogenous in cells; host or cells: HEK293T lysate
T2 sequence (Q16881 151-649 limits assumed): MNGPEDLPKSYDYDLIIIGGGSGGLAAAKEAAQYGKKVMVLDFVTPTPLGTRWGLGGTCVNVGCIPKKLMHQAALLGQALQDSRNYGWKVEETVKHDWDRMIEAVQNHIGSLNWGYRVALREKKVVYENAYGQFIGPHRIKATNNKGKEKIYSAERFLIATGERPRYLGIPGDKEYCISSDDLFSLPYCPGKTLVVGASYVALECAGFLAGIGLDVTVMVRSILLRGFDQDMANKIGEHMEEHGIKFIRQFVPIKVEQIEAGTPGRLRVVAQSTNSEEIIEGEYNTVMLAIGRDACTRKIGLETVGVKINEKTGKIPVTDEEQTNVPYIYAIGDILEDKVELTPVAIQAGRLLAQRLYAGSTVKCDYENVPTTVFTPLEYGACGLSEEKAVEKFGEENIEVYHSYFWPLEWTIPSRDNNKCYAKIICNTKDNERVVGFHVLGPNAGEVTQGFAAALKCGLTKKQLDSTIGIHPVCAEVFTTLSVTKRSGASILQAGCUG
Excerpt: as §3

glutathione reductase = molecular target: T3, glutathione reductase (Homo sapiens, UniProt P00390); experiment: DARTS proteomic assay; assay type: binding; settings: dose-dependent manner, FIG. 12
T3 construct: HEK293T cells were lysed using M-PER; endogenous in cells; host or cells: HEK293T lysate
T3 sequence (P00390 44-522): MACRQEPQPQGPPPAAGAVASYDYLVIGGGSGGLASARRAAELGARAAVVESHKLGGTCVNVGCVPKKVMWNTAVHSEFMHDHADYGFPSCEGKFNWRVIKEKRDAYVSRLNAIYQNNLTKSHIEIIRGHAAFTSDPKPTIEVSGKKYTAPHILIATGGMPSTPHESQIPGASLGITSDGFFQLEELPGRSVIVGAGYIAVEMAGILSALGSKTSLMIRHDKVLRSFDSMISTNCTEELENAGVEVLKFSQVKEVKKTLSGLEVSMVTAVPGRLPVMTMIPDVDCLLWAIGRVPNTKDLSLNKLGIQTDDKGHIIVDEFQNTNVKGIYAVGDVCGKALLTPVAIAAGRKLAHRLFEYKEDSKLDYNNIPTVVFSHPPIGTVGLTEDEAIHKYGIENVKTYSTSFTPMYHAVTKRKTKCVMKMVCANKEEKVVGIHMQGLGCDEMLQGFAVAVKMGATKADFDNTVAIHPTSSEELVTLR
Method: The unique properties of compound it prompted an in-depth analysis to explore its potential novel targets.
A DARTS assay was used to assess the binding of compound 1t. HEK293T cells were lysed using M-PER (Thermo Scientific, Inc.) supplemented with protease and phosphatase inhibitors (Lysis buffer). 4.7 mg/mL of protein and TNC buffer (10 mM Tris, 140 mMNaCl, 5 mM CaCl2)) was added, compound it was diluted in DMSO to 3 different concentrations (0.01 μM, 0.1 μM, 1 μM) and incubated for one hour at room temperature. Trypsin (Promega) was added and incubated for 3 hours at 37° C. Thereafter, M-PER lysis buffer was added and the samples were concentrated with Microcon 10K centrifugal filters. The proteins were identified by gel electrophoresis liquid chromatography mass spectroscopy (GelLCMS).

SMILES: CC1(C)[C@H]2COc3ccc4ccccc4c3[C@H]2N=C2SC(c3ccccc3)=C(c3ccccc3)N21 [Compound 1t]
- Cells arrested at G0/G1 phase with respect to control cells (MCF-7 cells): > 15%
- C-Myc oncogenic protein (C-Myc oncogenic protein): inhibited
- H2AX phosphorylation (H2AX): induced H2AX phosphorylation
- ATR phosphorylation (ATR): phosphorylates ATR
- Checkpoint kinase p-Chk2 expression (p-Chk2): elevated levels
- Targeting of cytosolic aminopeptidase (cytosol aminopeptidase): dose-dependent manner
- Concentration of highest effect on TrxR (thioredoxin reductase): 1 µM
- Modulation of TrxR (thioredoxin reductase; HEK293T lysate, 0.01, 0.1, 1 μM): concentration-dependent modulation
- Modulation of glutathione reductase function (glutathione reductase): modulated the functions
